Data published in ChEMBL document CHEMBL4130376, “Discovery of methylsulfonyl indazoles as potent and orally active respiratory syncytial Virus(RSV) fusion inhibitors” (Eur J Med Chem, 2017).

Tests used:
[1] = Effective permeability of the compound by PAMPA; type: ADME; details: read-out: Peff
[2] = Metabolic stability in mouse liver microsomes by high-throughput screening based assay; type: ADME, microsome; details: read-out: Stability
[3] = Metabolic stability in human liver microsomes by high-throughput screening based assay; type: ADME, microsome; details: read-out: Stability
[4] = Metabolic stability in rat liver microsomes by high-throughput screening based assay; type: ADME, microsome; details: read-out: Stability
[5] = Tmax in ICR mouse at […], po; type: ADME, organism-based; details: in vivo
[6] = Volume of distribution at steady state in ICR mouse at 2 mg/kg, iv; type: ADME, organism-based; details: in vivo, read-out: Vdss
[7] = Cmax in ICR mouse at 2 mg/kg, iv; type: ADME, organism-based; set-up: dose 2 mg/kg, route intravenous; details: in vivo
[8] = Cmax in ICR mouse at […], po; type: ADME, organism-based; set-up: dose 7.9 mg/kg, route oral; details: in vivo
[9] = AUC (0 to 24 hrs) in ICR mouse at […], po; type: ADME, organism-based; set-up: time < 24 hr, dose 7.9 mg/kg, route oral; details: in vivo
[10] = Oral bioavailability in ICR mouse at […]; type: ADME, organism-based; details: in vivo
[11] = Half life in ICR mouse at 2 mg/kg, iv; type: ADME, organism-based; details: in vivo
[12] = AUC (0 to 24 hrs) in ICR mouse at 2 mg/kg, iv; type: ADME, organism-based; set-up: time < 24 hr, dose 2 mg/kg, route intravenous; details: ICR, in vivo
[13] = Half life in ICR mouse at […], po; type: ADME, organism-based; details: in vivo
[14] = Plasma clearance in ICR mouse at 2 mg/kg, iv; type: ADME, organism-based
[15] = Cmax in ICR mouse at 10 mg/kg, po; type: ADME, organism-based; set-up: dose 10 mg/kg, route oral; details: in vivo
[16] = AUC (0 to 24 hrs) in ICR mouse at 10 mg/kg, po; type: ADME, organism-based; set-up: time < 24 hr, dose 10 mg/kg, route oral; details: in vivo
[17] = Half life in ICR mouse at 10 mg/kg, po; type: ADME, organism-based; details: in vivo
[18] = Oral bioavailability in ICR mouse at 10 mg/kg; type: ADME, organism-based; details: in vivo
[19] = Tmax in ICR mouse at 10 mg/kg, po; type: ADME, organism-based; details: in vivo
[20] = Cmax in ICR mouse at 1 mg/kg, iv; type: ADME, organism-based; set-up: dose 1 mg/kg, route intravenous; details: in vivo
[21] = Volume of distribution at steady state in ICR mouse at 1 mg/kg, iv; type: ADME, organism-based; details: in vivo, read-out: Vdss
[22] = Tmax in ICR mouse at 12.2 mg/kg, po; type: ADME, organism-based; details: in vivo
Mus musculus [23] = assay: Oral bioavailability in ICR mouse at 12.2 mg/kg; type: ADME, organism-based; details: in vivo
Mus musculus [24] = assay: AUC (0 to 24 hrs) in ICR mouse at 1 mg/kg, iv; type: ADME, organism-based; set-up: time < 24 hr, dose 1 mg/kg, route intravenous; details: in vivo
Mus musculus [25] = assay: AUC (0 to 24 hrs) in ICR mouse at 12.2 mg/kg, po; type: ADME, organism-based; set-up: dose 12.2 mg/kg, time < 24 hr, route oral; details: in vivo
[26] = Cmax in ICR mouse at 12.2 mg/kg, po; type: ADME, organism-based; set-up: dose 12.2 mg/kg, route oral; details: in vivo

`CS(=O)(=O)c1nn(Cc2nc3cc(Cl)ccc3n2CCCCC(F)(F)F)c2cnccc12` gave a Papp [1] of 0.95 ×10⁻⁶ cm/s, a CLhep predicted [2] of 22.7 mL/min/kg and a CLhep predicted [3] of 4.57 mL/min/kg. For the same compound, the CLhep predicted [4] was 6.15 mL/min/kg.

For `CS(=O)(=O)CCn1c(Cn2cc(S(C)(=O)=O)c3ccccc32)nc2ccccc21`, the Papp [1] was 4.87 ×10⁻⁶ cm/s, the CLhep predicted [2] was 19.7 mL/min/kg and the CLhep predicted [3] was 7.33 to 9 mL/min/kg.

For `CS(=O)(=O)CCCc1c(CN2C(=O)C3(CC3)c3ccncc32)nc2cc(Cl)ccn12`, the CLhep predicted [2] was 83.3 mL/min/kg and the CLhep predicted [3] was 11.7 mL/min/kg.

Work on `CC(C)(O)CCn1c(Cn2nc(S(C)(=O)=O)c3ccncc32)nc2cc(Cl)ccc21` yielded a Tmax [5] of 15 min, a Papp [1] of 2.39 ×10⁻⁶ cm/s and a Vd [6] of 1.93 L/kg. For the same compound, the Cmax [7] was 894 ng/mL, the CLhep predicted [2] was 26.6 mL/min/kg and the Cmax [8] was 324 ng/mL. It also gave an AUC(0-t) at 24 h [9] of 546 ng·h/mL, a bioavailability [10] of 32.5% and a half-life [11] of 28.2 min. For the same compound, the AUC(0-t) at 24 h [12] was 701 ng·h/mL, the half-life [13] was 119 min and the clearance [14] was 61.1 mL/min/kg. For the same compound, the CLhep predicted [3] was 2.95 mL/min/kg and the CLhep predicted [4] was 8.45 mL/min/kg.

`CS(=O)(=O)c1nn(Cc2nc3cc(Cl)ccc3n2CCOCCO)c2cnccc12` showed a Papp [1] of 3.12 ×10⁻⁶ cm/s, a CLhep predicted [2] of 14.2 mL/min/kg and a CLhep predicted [3] of 1.91 mL/min/kg. It also gave a CLhep predicted [4] of 13.7 mL/min/kg.

Work on `CS(=O)(=O)CCCn1c(Cn2nc(S(C)(=O)=O)c3ccncc32)nc2cc(Cl)ccc21` yielded a Papp [1] of 1.55 ×10⁻⁶ cm/s, a CLhep predicted [2] of 75.5 mL/min/kg and a CLhep predicted [3] of 11.3 mL/min/kg. For the same compound, the CLhep predicted [4] was 39.9 mL/min/kg.

Work on `CN(C)S(=O)(=O)c1cn(Cc2nc3cc(Cl)ccc3n2CCCS(C)(=O)=O)c2ccccc12` yielded a Papp [1] of 1.55 ×10⁻⁶ cm/s, a CLhep predicted [2] of 81.7 mL/min/kg and a CLhep predicted [3] of 21.9 mL/min/kg. The CLhep predicted [4] was 56.2 mL/min/kg.

With `CC(C)(O)CCCn1c(Cn2nc(S(C)(=O)=O)c3ccncc32)nc2cc(Cl)ccc21` the Cmax [15] was 340 ng/mL, the Papp [1] was 2.57 ×10⁻⁶ cm/s and the Vd [6] was 1.09 L/kg. The Cmax [7] was 1300 ng/mL, the CLhep predicted [2] was 20.7 mL/min/kg and the half-life [11] was 14.5 min. It also gave an AUC(0-t) at 24 h [12] of 552 ng·h/mL, an AUC(0-t) at 24 h [16] of 809 ng·h/mL and a clearance [14] of 60.4 mL/min/kg. It also gave a CLhep predicted [3] of 5.17 mL/min/kg, a half-life [17] of 307 min and a CLhep predicted [4] of 2.96 mL/min/kg. For the same compound, the bioavailability [18] was 29.3% and the Tmax [19] was 15 min.

`CS(=O)(=O)c1nn(Cc2nc3cc(Cl)ccc3n2CC2COC2)c2cnccc12` showed a Cmax [20] of 1270 ng/mL, a Vd [21] of 0.88 L/kg and a Tmax [22] of 30 min. For the same compound, the Papp [1] was 3.22 ×10⁻⁶ cm/s, the F (Mus musculus [23]) was 23.8% and the CLhep predicted [2] was 9 mL/min/kg. It also gave an AUC (Mus musculus [24]) of 2870 ng·h/mL, a CLhep predicted [3] of 3.9 mL/min/kg and an AUC (Mus musculus [25]) of 989 ng·h/mL. The CLhep predicted [4] was 19.8 mL/min/kg and the Cmax [26] was 972 ng/mL.
